Measurements as given in patent US20020054941A1, “Methods and compositions to enhance tenderness and value of meat” (The Board of Regents of the University of Nebraska, priority 2000, published 2002).
Marks after values point to notes of the source that are not given here.

What was measured:
[1] = tested on: sternomandibularis beef muscles; assay: pH of pre-rigor injected sectioned muscle; details: injection 10% of muscle weight, 200 mM (glucose, calcium chloride 300 mM)
Experimental: Pre-rigor beef muscle was sectioned and the sections were injected at approximately 1 hour post-mortem with a volume of treatment solution equal to 10% of the muscle weight. Objective color measurements were taken on pieces of each muscle section and the pieces were then frozen, powdered and stored at −80° C. for up to 10 days before testing pH and analyzing oxidation-reduction potential. Shear force was evaluated as described immediately above. Solutions used in this procedure were as follows: sodium citrate (200 mM), sodium acetate (200 mM), glucose (300 mM), calcium citrate (200 mM), calcium chloride (300 mM), injection with water, and no injection (control). The calcium citrate solution was prepared as a suspension using 0.25% carrageenan and 200 mM calcium citrate due to its insolubility in water. However, use of calcium citrate can be optimized by increasing solubility by means known in the art.

[2] = tested on: semimembranosus beef muscles; assay: Glycogen content, pre-rigor injection of whole muscle
Experimental: (§1) Experiment were conducted to test the effects of pre-rigor injection of several compounds. Effects of these compounds on pH, color, tenderness and other related traits of low-value beef cuts were investigated. Ten steers (22 to 24 mo of age, 515 to 676 kg live weight) were slaughtered according to current industry procedures. Pre-rigor semimembranosus (from the round), triceps brachii and supraspinatus muscles (from the chuck) were excised, after evisceration (approximately 1 hour post-mortem), from both sides of the carcass. Muscle sections were randomly assigned to the treatments: sodium citrate (NaC; 200 mM), sodium fluoride (NaF; 200 mM), sodium acetate (NaA; 200 mM), and calcium chloride (CaCl2; 300 mM). The control samples remained on the carcass at 2° C. for 24 hours to simulate commercial conditions. Following a cooling, control muscles were removed from each carcass (4 replicates), vacuum packaged and transferred to the holding cooler with the other cuts at 2° C. Calcium chloride treatment was included to be compared with the other treatments.
(§2) At 2 hours post-mortem, each muscle was injected with a volume equal to 8% of the muscle weight using a four-needle hand injector. The temperature of solutions were 4° C. Each muscle was individually treated (2% of solution was added to give a total of 10% of muscle weight) and tumbled in a 75-pound capacity tumbler (Röschermatic, Oshabrück, Germany) for 30 min to insure uniform distribution of the solution.
(§3) Samples of each muscle (approximately 100 g) were taken at 0 hour (before injection), 24, and 72 hours after injection for determination of pH, oxidation-reduction potential, glycogen content, R-values, NAD, and NADH. The samples were then immediately frozen in liquid nitrogen and stored at −80° C. until they were powdered and analyzed. Fresh muscle samples (approximately 20 g) were taken at 72 hours after injection and assayed immediately for water holding capacity and sarcomere length.
(§4) Glycogen extraction was performed in duplicate with 3 g of frozen-powdered muscle sample, which was homogenized with 0.6 N perchloric acid. Amylo-α-1,4-α-1,6- glucosidase from Aspergillus niger (No. A3514. Sigma Chemical, St. Louis, Mo.) was used for the breakdown of the glycogen molecules to free glucose following the method described by Roehrig and Allred (1974). Homogenate was incubated for 2 hours at 37° C., then 100 μL of 3 N perchloric acid was added to precipitate the proteins. After centrifugation, the supernatant was stored at 0-4° C., until analyzed, which was within 2 weeks.
(§5) The assay for glucose was run as described by Dalrymple and Hamm (1973) and Roehrig and Allred (1974), using glucose-6-phosphate dehydrogenase (No. G8878. Sigma Chemical, St. Louis, Mo.) and hexokinase (No. H5500. Sigma Chemical, St. Louis, Mo.). Briefly, the method involves an exoglucosidase, Amylogucosidase, from Aspergillus niger which hydrolyses the -α-D-(1-4) and -α-D-(1-6)-linkages of glycogen. The glucose formed is specifically determined with hexokinase and glucose-6-phosphate dehydrogenase. The glucose liberated after hydrolysis of glycogen is proportional to the increase of absorbance measured at 340 nm. Fifty μL of sample was incubated with 1 mL ATP, NADP, Glucose-6-phosphate dehydrogenase buffer and 5 μL hexokinase at 37° C. for 15 min. Absorbance was measured at 340 nm wavelength, light path=1 cm. The muscle glycogen content was calculated with the following formula: Glycogen (μmol glucose/g wet muscle weight)=111.882×absorbance. 111.882 is the dilution factor.

[3] = tested on: supraspinatus beef muscles; assay: as above
Experimental: as §1, §2, §3, §4, §5

[4] = tested on: triceps brachii beef muscles; assay: as above; details: 200 mM, calcium chloride 300 mM
Experimental: as §1, §2, §3, §4, §5

[5] = tested on: Infraspinatus (ISP) steaks; assay: Consumer panel palatability ratings of steaks; design: species or system steers; details: for Flavor / Tenderness: ISP, 9-point hedonic scale
Experimental: (§6) Thoracic limbs from 14 steers were chilled on the carcass (controls) or removed within 2 hours post-mortem and pumped to 10% of muscle weight with water, 200 mM or 400 mM sodium citrate solutions. The injections were performed at various sites along the muscle. The control remained on the carcass. Muscle pH and temperature were measured immediately prior to pumping. Experimental and control muscles were chilled at 2° C. for 24 hours. Steaks (2.54 cm thick) were removed after 24 hours from the Infraspinatus, Supraspinatus and Triceps brachii muscles and were either frozen immediately or aged for another 6 days and then evaluated. A consumer panel evaluated palatability juiciness, tenderness, connective tissue amount, and flavor desirability) on Infraspinatus and Triceps brachii steaks using 9-point hedonic scales (1 being very undesirable and 9 being very desirable) for each trait. Warner-Bratzler shear force values were determined on 1.27 cm-diameter cores from steaks that were broiled to an internal temperature of 70° C.

[6] = tested on: Triceps brachii (TBR) steaks; assay: Consumer panel palatability ratings of steaks; design: species or system steers; details: for Flavor / Tenderness: TBR, 9-point hedonic scale
Experimental: as §6

spoilage micro-organisms = assay: Microbial stability (logarithmic microbiological growth); details: for Logarithmic Microbiological Growth Values, difference: difference day 5 - day 0
Experimental: as §6
There were no differences in initial microbial load among the treatments.

[7] = 24 h, 200 mM, calcium chloride 300 mM
[8] = 72 h, 200 mM, calcium chloride 300 mM
[9] = 400 mM, Infraspinatus, day 1 and day 7, P<0.10, data not shown
[10] = 400 mM, Triceps brachii, day 1 and day 7, P<0.10, data not shown

O=C([O-])CC(O)(CC(=O)[O-])C(=O)[O-].[Na+].[Na+].[Na+] [Sodium citrate, sodium citrate]
PH (0 h) ([1]; 0 h): 6.86 | pH, 72 h ([1]; 72 h): 5.77^bc | Glycogen, 0 h ([2]; 0 h (before injection)): 65.12 μmol/g muscle | Glycogen, 24 h [2, 7]: 52.83^a μmol/g muscle | Glycogen, 72 h [2, 8]: 45.65^a μmol/g muscle | Glycogen, 0 h ([3]; 0 h (before injection)): 45.18 μmol/g muscle | Glycogen, 24 h [3, 7]: 30.43 μmol/g muscle | Glycogen, 72 h [3, 8]: 22.65^ab μmol/g muscle | Glycogen, 0 h ([4]; 0 h (before injection)): 38.74 μmol/g muscle | Glycogen, 24 h ([4]; 24 h): 32.93^b μmol/g muscle | Glycogen, 72 h ([4]; 72 h): 27.58^b μmol/g muscle | Flavor ([5]; 200 mM, d1): 5.33^a,b | Tenderness ([5]; 200 mM, d1): 5.36^a,b | Flavor ([5]; 200 mM, d7): 5.35^a | Tenderness ([5]; 200 mM, d7): 5.68^a | Flavor ([5]; 400 mM, d1): 5.49^a* | Tenderness ([5]; 400 mM, d1): 5.67^a | Flavor ([5]; 400 mM, d7): 5.41^a | Tenderness ([5]; 400 mM, d7): 5.90^a | Connective tissue amount rating vs controls [5, 9]: more desirable | Juiciness rating vs controls [5, 9]: more desirable | Flavor ([6]; 200 mM, d1): 5.23^a | Tenderness ([6]; 200 mM, d1): 4.81^b | Flavor ([6]; 200 mM, d7): 4.87^a | Flavor ([6]; 400 mM, d1): 5.30^a* | Tenderness ([6]; 400 mM, d1): 5.25^a | Flavor ([6]; 400 mM, d7): 5.18^a | Tenderness ([6]; 400 mM, d7): 5.48^a | Connective tissue amount rating vs controls [6, 10]: more desirable | Juiciness rating vs controls [6, 10]: more desirable | Logarithmic Microbiological Growth Values (spoilage micro-organisms; 200 mM, day 0): 2.58 | Logarithmic Microbiological Growth Values (spoilage micro-organisms; 200 mM, day 5): 5.45^b | Logarithmic Microbiological Growth Values, difference (spoilage micro-organisms; 200 mM): 2.88^b | Logarithmic Microbiological Growth Values (spoilage micro-organisms; 400 mM, day 0): 2.72 | Logarithmic Microbiological Growth Values (spoilage micro-organisms; 400 mM, day 5): 5.11^b | Logarithmic Microbiological Growth Values, difference (spoilage micro-organisms; 400 mM): no greater microbial growth than the control | Logarithmic Microbiological Growth Values, difference (spoilage micro-organisms; 400 mM, listed as NaCit): 2.40^a,b
